# Laboratory results from publication PMC11845477, “Exploring the principles behind antibiotics with limited resistance” (Nature Communications, 2025).
# System: P. aeruginosa ATCC BAA-3107 (SEN) and P. aeruginosa LESB58 (MDR)
# Assay: Adaptive laboratory evolution (ALE), relative MIC of evolved lines
# Format: cell-based, Pseudomonas aeruginosa
# From the text: Using the same set of bacterial strains, we initiated adaptive laboratory evolution with the aim to maximize the level of antibiotic resistance in the populations achieved during a longer, but fixed time period.
# An established protocol for adaptive laboratory evolution[46],[73] was followed to propagate populations with the highest resistance levels. Starting with an antibiotic concentration that caused approximately 50% growth inhibition, ten parallel populations for each antibiotic-ancestor strain combination were grown for 72 hours at 37 °C with continuous shaking (300 RPM). MHB broth medium was used unless stated otherwise. After each incubation, 20 µl of each culture was transferred to four new wells containing fresh medium with increasing antibiotic concentrations (0.5×, 1×, 1.5×, and 2.5× the previous concentration) in a chessboard layout to monitor potential cross-contamination. Growth was monitored by measuring OD600 using a Biotek Synergy 2 microplate reader, and only populations grown in the highest drug concentration with an OD600 > 0.2 were transferred further.
# A robotic liquid handling system was used to automatically prepare a 11 to 16-step serial dilution in 384-well microtiter plates (Greiner). A final concentration of 5 × 10^5 bacterial cells per mL were inoculated into each well containing 60 µL MHB medium. Bacterial cultures were incubated at 37 °C with continuous shaking (Infors shaker, 900 rpm with 3 mm throw) for 18 hours (2 replicates from each). Cell growth was monitored by measuring the optical density (OD600 values, using Biotek Synergy microplate reader). MIC was defined as the antibiotic concentration of complete growth inhibition (i.e., OD600 < 0.05). Relative MIC was calculated as follows:1 relativeMIC=MICevolved/MICancestor […]
# Supplementary Figure 4. Resistance levels following adaptive laboratory evolution across bacterial strains. The level of resistance was measured as the fold change in relative MIC between evolved and ancestral strains after ~60 days of adaptive laboratory evolution. Data are grouped by bacterial strain (A. baumannii (AB), E. coli (EC), K. pneumoniae (KP), and P. aeruginosa (PA)) and categorized as either multidrug-resistant (MDR) or sensitive (SEN). Each data point represents a laboratory evolved line, and boxplots show the median, first and third quartiles, with whiskers indicating the 5th and 95th percentiles.
# Statistical analysis was performed using two-sided Dunn’s post-hoc test with Benjamini-Hochberg correction for multiple comparisons (****/ ***/ **/ * indicates p < 0.0001/ 0.001/ 0.01/ 0.05). For detailed information on antibiotic and bacterial species, see Supplementary Table 1. For mode of action groups, refer to Table 1. Source data are provided as a Source Data file.
# [1] = PA-SEN (ATCC BAA 3107), evolved line 2
# [2] = PA-SEN (ATCC BAA 3107), evolved line 2, MIC of evolved line / MIC of ancestor
# [3] = PA-SEN (ATCC BAA 3107), evolved line 3
# [4] = PA-SEN (ATCC BAA 3107), evolved line 3, MIC of evolved line / MIC of ancestor
# [5] = PA-SEN (ATCC BAA 3107), evolved line 4
# [6] = PA-SEN (ATCC BAA 3107), evolved line 4, MIC of evolved line / MIC of ancestor
# [7] = PA-SEN (ATCC BAA 3107), evolved line 5
# [8] = PA-SEN (ATCC BAA 3107), evolved line 5, MIC of evolved line / MIC of ancestor
# [9] = PA-SEN (ATCC BAA 3107), evolved line 6
# [10] = PA-SEN (ATCC BAA 3107), evolved line 6, MIC of evolved line / MIC of ancestor
# [11] = PA-SEN (ATCC BAA 3107), evolved line 7
# [12] = PA-SEN (ATCC BAA 3107), evolved line 7, MIC of evolved line / MIC of ancestor
# [13] = PA-SEN (ATCC BAA 3107), evolved line 8
# [14] = PA-SEN (ATCC BAA 3107), evolved line 8, MIC of evolved line / MIC of ancestor
# [15] = PA-SEN (ATCC BAA 3107), evolved line 9
# [16] = PA-SEN (ATCC BAA 3107), evolved line 9, MIC of evolved line / MIC of ancestor
# [17] = PA-SEN (ATCC BAA 3107), evolved line 10
# [18] = PA-SEN (ATCC BAA 3107), evolved line 10, MIC of evolved line / MIC of ancestor
# [19] = PA-SEN (Pseudomonas aeruginosa ATCC BAA 3107), evolved line 7 adapted to the named antibiotic
# [20] = Pseudomonas aeruginosa ATCC BAA 3107 (PA-SEN), evolved line 2
# [21] = Pseudomonas aeruginosa ATCC BAA 3107 (PA-SEN), evolved line 3
# [22] = Pseudomonas aeruginosa ATCC BAA 3107 (PA-SEN), evolved line 4
# [23] = Pseudomonas aeruginosa ATCC BAA 3107 (PA-SEN), evolved line 5
# [24] = Pseudomonas aeruginosa ATCC BAA 3107 (PA-SEN), evolved line 6
# [25] = Pseudomonas aeruginosa ATCC BAA 3107 (PA-SEN), evolved line 7
# [26] = Pseudomonas aeruginosa ATCC BAA 3107 (PA-SEN), evolved line 8
# [27] = Pseudomonas aeruginosa ATCC BAA 3107 (PA-SEN), evolved line 9
# [28] = Pseudomonas aeruginosa ATCC BAA 3107 (PA-SEN), evolved line 10
smiles,measurement,setting,value
Nc1nc(-n2cc(C(=O)O)c(=O)c3cc(F)c(N4CC(O)C4)c(Cl)c32)c(F)cc1F [Delafloxacin],Relative MIC,"PA-MDR (LESB 58), evolved line 1, MIC of evolved line / MIC of ancestor",64
same,Relative MIC,"PA-MDR (LESB 58), evolved line 2, MIC of evolved line / MIC of ancestor",64
same,Relative MIC,"PA-MDR (LESB 58), evolved line 3, MIC of evolved line / MIC of ancestor",64
same,MIC of evolved line,"PA-MDR (LESB 58), evolved line 4",128 µg/mL
same,Relative MIC,"PA-MDR (LESB 58), evolved line 4, MIC of evolved line / MIC of ancestor",64
same,MIC of evolved line,"PA-MDR (LESB 58), evolved line 5",128 µg/mL
same,Relative MIC,"PA-MDR (LESB 58), evolved line 5, MIC of evolved line / MIC of ancestor",64
same,MIC of evolved line,"PA-MDR (LESB 58), evolved line 6",64 µg/mL
same,Relative MIC,"PA-MDR (LESB 58), evolved line 6, MIC of evolved line / MIC of ancestor",32
same,MIC of evolved line,"PA-MDR (LESB 58), evolved line 7",128 µg/mL
same,Relative MIC,"PA-MDR (LESB 58), evolved line 7, MIC of evolved line / MIC of ancestor",64
same,MIC of evolved line,"PA-MDR (LESB 58), evolved line 8",128 µg/mL
same,Relative MIC,"PA-MDR (LESB 58), evolved line 8, MIC of evolved line / MIC of ancestor",64
same,MIC of evolved line,"PA-MDR (LESB 58), evolved line 9",128 µg/mL
same,Relative MIC,"PA-MDR (LESB 58), evolved line 9, MIC of evolved line / MIC of ancestor",64
same,MIC of evolved line,"PA-MDR (LESB 58), evolved line 10",64 µg/mL
same,Relative MIC,"PA-MDR (LESB 58), evolved line 10, MIC of evolved line / MIC of ancestor",32
same,Relative MIC (log10),"PA-MDR (Pseudomonas aeruginosa LESB 58), evolved line 2 adapted to the named antibiotic",1.806
same,Relative MIC (log10),"PA-MDR (Pseudomonas aeruginosa LESB 58), evolved line 4 adapted to the named antibiotic",1.806
same,Relative MIC (log10),"PA-MDR (Pseudomonas aeruginosa LESB 58), evolved line 6 adapted to the named antibiotic",1.505
same,Relative MIC (log10),"PA-MDR (Pseudomonas aeruginosa LESB 58), evolved line 7 adapted to the named antibiotic",1.806
same,Relative MIC (log10),"PA-MDR (Pseudomonas aeruginosa LESB 58), evolved line 9 adapted to the named antibiotic",1.806
same,MIC of evolved line,"PA-MDR LESB 58, evolved line 1",128 µg/mL
same,MIC of evolved line,"PA-MDR LESB 58, evolved line 2",128 µg/mL
same,MIC of evolved line,"PA-MDR LESB 58, evolved line 3",128 µg/mL
same,MIC of evolved line,[1],32 µg/mL
same,Relative MIC,[2],2048
same,MIC of evolved line,[3],64 µg/mL
same,Relative MIC,[4],4096
same,MIC of evolved line,[5],32 µg/mL
same,Relative MIC,[6],2048
same,MIC of evolved line,[7],32 µg/mL
same,Relative MIC,[8],2048
same,MIC of evolved line,[9],64 µg/mL
same,Relative MIC,[10],4096
same,MIC of evolved line,[11],32 µg/mL
same,Relative MIC,[12],2048
same,MIC of evolved line,[13],32 µg/mL
same,Relative MIC,[14],2048
same,MIC of evolved line,[15],32 µg/mL
same,Relative MIC,[16],2048
same,MIC of evolved line,[17],32 µg/mL
same,Relative MIC,[18],2048
same,Relative MIC (log10),"PA-SEN (Pseudomonas aeruginosa ATCC BAA 3107), evolved line 2 adapted to the named antibiotic",3.311
same,Relative MIC (log10),[19],3.311
same,Relative MIC (log10),"PA-SEN (Pseudomonas aeruginosa ATCC BAA 3107), evolved line 8 adapted to the named antibiotic",3.311
same,Relative MIC (log10),"PA-SEN (Pseudomonas aeruginosa ATCC BAA 3107), evolved line 10 adapted to the named antibiotic",3.311
same,Relative MIC,[20],2048
same,Relative MIC,[21],4096
same,Relative MIC,[22],2048
same,Relative MIC,[23],2048
same,Relative MIC,[24],4096
same,Relative MIC,[25],2048
same,Relative MIC,[26],2048
same,Relative MIC,[27],2048
same,Relative MIC,[28],2048
same,Relative MIC,"Pseudomonas aeruginosa LESB 58 (PA-MDR), evolved line 1",64
same,Relative MIC,"Pseudomonas aeruginosa LESB 58 (PA-MDR), evolved line 2",64
same,Relative MIC,"Pseudomonas aeruginosa LESB 58 (PA-MDR), evolved line 3",64
same,Relative MIC,"Pseudomonas aeruginosa LESB 58 (PA-MDR), evolved line 4",64
same,Relative MIC,"Pseudomonas aeruginosa LESB 58 (PA-MDR), evolved line 5",64
same,Relative MIC,"Pseudomonas aeruginosa LESB 58 (PA-MDR), evolved line 6",32
same,Relative MIC,"Pseudomonas aeruginosa LESB 58 (PA-MDR), evolved line 7",64
same,Relative MIC,"Pseudomonas aeruginosa LESB 58 (PA-MDR), evolved line 8",64
same,Relative MIC,"Pseudomonas aeruginosa LESB 58 (PA-MDR), evolved line 9",64
same,Relative MIC,"Pseudomonas aeruginosa LESB 58 (PA-MDR), evolved line 10",32
C[C@H]1c2cccc(O)c2C(=O)C2=C(O)[C@]3(O)C(=O)C(C(N)=O)=C(O)[C@@H](N(C)C)[C@@H]3[C@@H](O)[C@@H]21 [Doxycycline],Relative MIC,"PA-SEN (ATCC BAA 3107), evolved line 1, MIC of evolved line / MIC of ancestor",64
same,MIC of evolved line,[1],256 µg/mL
same,Relative MIC,[2],64
same,MIC of evolved line,[3],256 µg/mL
same,Relative MIC,[4],64
same,MIC of evolved line,[5],256 µg/mL
same,Relative MIC,[6],64
same,MIC of evolved line,[7],256 µg/mL
same,Relative MIC,[8],64
same,MIC of evolved line,[9],256 µg/mL
same,Relative MIC,[10],64
same,MIC of evolved line,[11],256 µg/mL
same,Relative MIC,[12],64
same,MIC of evolved line,[13],256 µg/mL
same,Relative MIC,[14],64
same,MIC of evolved line,[15],256 µg/mL
same,Relative MIC,[16],64
same,MIC of evolved line,[17],256 µg/mL
same,Relative MIC,[18],64
same,Relative MIC (log10),"PA-SEN (Pseudomonas aeruginosa ATCC BAA 3107), evolved line 1 adapted to the named antibiotic",1.806
same,Relative MIC (log10),"PA-SEN (Pseudomonas aeruginosa ATCC BAA 3107), evolved line 3 adapted to the named antibiotic",1.806
same,Relative MIC (log10),"PA-SEN (Pseudomonas aeruginosa ATCC BAA 3107), evolved line 5 adapted to the named antibiotic",1.806
same,Relative MIC (log10),[19],1.806
same,Relative MIC (log10),"PA-SEN (Pseudomonas aeruginosa ATCC BAA 3107), evolved line 9 adapted to the named antibiotic",1.806
same,MIC of evolved line,"PA-SEN ATCC BAA 3107, evolved line 1",256 µg/mL
same,Relative MIC,"Pseudomonas aeruginosa ATCC BAA 3107 (PA-SEN), evolved line 1",64
same,Relative MIC,[20],64
same,Relative MIC,[21],64
same,Relative MIC,[22],64
same,Relative MIC,[23],64
same,Relative MIC,[24],64
same,Relative MIC,[25],64
same,Relative MIC,[26],64
same,Relative MIC,[27],64
same,Relative MIC,[28],64
